Laboratory results from BindingDB's records for PubMed 33721669 (National Institute of Pharmaceutical Education and Research …, 2021).

Key:
[1] = biological target: Cyclin-dependent kinase 2 (Homo sapiens, UniProt P24941); assay: Inhibition of CDK2 (unknown origin)
[2] = Inhibition of PDK1 (unknown origin) by SelectScreen kinase assay
[3] = Inhibition of VEGFR-2 (unknown origin) induced tube formation in HUVECs cocultured with fibroblasts measured after 11 days with media renewing every 3 days by staining based analysis

Row | IC50 [1] [nM] | SMILES | further results
1 | 53 | COc1ccc2c(c1)/C(=N/NC(=O)c1cc3cc(Br)ccc3o1)C(=O)N2 | 
2 |  | COc1cc2c(cc1OC)CN(CC(=O)Nc1ccc3c(c1)/C(=C/c1cnc[nH]1)C(=O)N3)CC2 | IC50 [2]: 98000 nM
3 |  | CCN(CC)CCN1Cc2[nH]c(/C=C3\C(=O)Nc4ccc(Br)cc43)c(C)c2C1=O | IC50 [3]: 179 nM
4 | 38 | O=C1Nc2ccc(Br)cc2/C1=N/NC(=O)c1cc2cc(Br)ccc2o1 | 
